Experiments:
Test in all cases: relative viability (nuclei count vs DMSO), 5 days (fraction); higher = more cells survive
Bleomycin + Pemetrexed = compound: CC1=C(N=C(N=C1N)[C@H](CC(=O)N)NC[C@@H](C(=O)N)N)C(=O)N[C@@H]([C@H](C2=CN=CN2)OC3C(C(C(C(O3)CO)O)O)OC4C(C(C(C(O4)CO)O)OC(=O)N)O)C(=O)N[C@H](C)[C@H]([C@H](C)C(=O)N[C@@H]([C@@H](C)O)C(=O)NCCC5=NC(=CS5)C6=NC(=CS6)C(=O)NCCC[S+](C)C)O [Bleomycin] + Nc1nc2[nH]cc(CCc3ccc(C(=O)N[C@@H](CCC(=O)O)C(=O)O)cc3)c2c(=O)[nH]1 [Pemetrexed] (partner 0.2 µM); conditions: main component drawn
Procedure, shortened: (§1)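 Relative viability equals treated-well nuclei counts divided by vehicle-well nuclei counts. Counts came from 4× images of lung cancer cell lines grown in 1536-well plates for 5 days after pin-tool dosing on the day after seeding. Dosing used one drug alone or a fixed anchor-drug dose plus five library-drug doses (not always all listed) in √10 steps, and values are medians of duplicate plates.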

Etoposide + OSI-027 = compound: COc1cc([C@@H]2c3cc4c(cc3[C@@H](O[C@@H]3O[C@@H]5CO[C@@H](C)O[C@H]5[C@H](O)[C@H]3O)[C@H]3COC(=O)[C@H]23)OCO4)cc(OC)c1O [Etoposide] + COc1cccc2cc(-c3nc([C@H]4CC[C@H](C(=O)O)CC4)n4ncnc(N)c34)[nH]c12 [OSI-027] (partner 0.5 µM)
Procedure, shortened: as §1

Bleomycin + Crizotinib = compound: CC1=C(N=C(N=C1N)[C@H](CC(=O)N)NC[C@@H](C(=O)N)N)C(=O)N[C@@H]([C@H](C2=CN=CN2)OC3C(C(C(C(O3)CO)O)O)OC4C(C(C(C(O4)CO)O)OC(=O)N)O)C(=O)N[C@H](C)[C@H]([C@H](C)C(=O)N[C@@H]([C@@H](C)O)C(=O)NCCC5=NC(=CS5)C6=NC(=CS6)C(=O)NCCC[S+](C)C)O [Bleomycin] + C[C@@H](Oc1cc(-c2cnn(C3CCNCC3)c2)cnc1N)c1c(Cl)ccc(F)c1Cl [Crizotinib] (partner 1 µM); conditions: main component drawn
Procedure, shortened: as §1

Bleomycin + Luminespib = compound: CC1=C(N=C(N=C1N)[C@H](CC(=O)N)NC[C@@H](C(=O)N)N)C(=O)N[C@@H]([C@H](C2=CN=CN2)OC3C(C(C(C(O3)CO)O)O)OC4C(C(C(C(O4)CO)O)OC(=O)N)O)C(=O)N[C@H](C)[C@H]([C@H](C)C(=O)N[C@@H]([C@@H](C)O)C(=O)NCCC5=NC(=CS5)C6=NC(=CS6)C(=O)NCCC[S+](C)C)O [Bleomycin] + CCNC(=O)c1noc(-c2cc(C(C)C)c(O)cc2O)c1-c1ccc(CN2CCOCC2)cc1 [Luminespib] (partner 0.01 µM); conditions: main component drawn
Procedure, shortened: as §1

Row | Cell Line | relative viability (Bleomycin + Pemetrexed; first compound 0.01 µM) | relative viability (Bleomycin + Pemetrexed; first compound 0.03162 µM) | relative viability (Bleomycin + Pemetrexed; first compound 0.1 µM) | relative viability (Bleomycin + Pemetrexed; first compound 0.3162 µM) | relative viability (Bleomycin + Pemetrexed; first compound 1 µM) | relative viability (Etoposide + OSI-027; first compound 0.01 µM) | relative viability (Etoposide + OSI-027; first compound 0.03162 µM) | relative viability (Etoposide + OSI-027; first compound 0.1 µM) | relative viability (Etoposide + OSI-027; first compound 0.3162 µM) | relative viability (Etoposide + OSI-027; first compound 1 µM) | relative viability (Bleomycin + Crizotinib; first compound 0.01 µM) | relative viability (Bleomycin + Crizotinib; first compound 0.03162 µM) | relative viability (Bleomycin + Crizotinib; first compound 0.1 µM) | relative viability (Bleomycin + Crizotinib; first compound 0.3162 µM) | relative viability (Bleomycin + Crizotinib; first compound 1 µM) | relative viability (Bleomycin + Luminespib; first compound 0.01 µM) | relative viability (Bleomycin + Luminespib; first compound 0.03162 µM) | relative viability (Bleomycin + Luminespib; first compound 0.1 µM) | relative viability (Bleomycin + Luminespib; first compound 0.3162 µM) | relative viability (Bleomycin + Luminespib; first compound 1 µM)
1 | NCI-H647 | 0.198 | 0.153 | 0.196 | 0.0716 | 0.0627 | 0.579 | 0.627 | 0.456 | 0.491 | 0.267 | 0.313 | 0.326 | 0.213 | 0.135 | 0.109 | 0.111 | 0.169 | 0.104 | 0.0882 | 0.0947
2 | A-427 | 0.875 | 0.917 | 0.868 | 0.432 | 0.288 | 0.472 | 0.486 | 0.43 | 0.396 | 0.212 | 0.738 | 0.776 | 0.67 | 0.402 | 0.223 | 0.747 | 0.775 | 0.753 | 0.256 | 0.158
3 | EMC-BAC-2 | 0.416 | 0.4 | 0.419 | 0.476 | 0.324 | 0.353 | 0.383 | 0.294 | 0.23 | 0.15 | 0.628 | 0.626 | 0.738 | 0.318 | 0.241 | 0.997 | 0.832 | 0.8 | 0.348 | 0.244
4 | NCI-H460 | 0.0698 | 0.0674 | 0.0717 | 0.0385 | 0.0443 | 0.601 | 0.731 | 0.415 | 0.0887 | 0.0402 | 0.331 | 0.0828 | 0.0648 | 0.0162 | 0.0149 | 0.0436 | 0.0291 | 0.0214 | 0.0162 | 0.0138
5 | LCLC-103H | 0.452 | 0.443 | 0.455 | 0.487 | 0.419 | 0.515 | 0.516 | 0.392 | 0.55 | 0.424 | 0.956 | 1.01 | 1 | 0.915 | 0.588 | 0.849 | 0.826 | 0.747 | 0.496 | 0.333
6 | HCC-827 | 0.252 | – | 0.25 | 0.235 | 0.207 | 0.742 | 0.773 | 0.569 | 0.668 | 0.174 | 0.872 | 0.95 | 0.831 | 0.635 | 0.274 | 0.525 | 0.576 | 0.377 | 0.39 | 0.233
7 | NCI-H1355 | 1 | 1.04 | 1.03 | 0.648 | 0.298 | 0.383 | 0.396 | 0.3 | 0.345 | 0.219 | 0.948 | 1.03 | 0.926 | 0.538 | 0.298 | 0.672 | 0.606 | 0.698 | 0.304 | 0.289
8 | NCI-H1734 | 0.392 | 0.406 | 0.383 | 0.342 | 0.273 | 0.636 | 0.617 | 0.406 | 0.497 | 0.302 | 0.581 | 0.545 | 0.554 | 0.219 | 0.198 | 0.167 | 0.187 | 0.198 | 0.13 | 0.147
9 | HARA | 0.219 | 0.228 | 0.237 | 0.169 | 0.217 | 0.517 | 0.554 | 0.151 | 0.422 | 0.118 | 0.938 | 0.952 | 0.974 | 0.54 | 0.36 | 0.682 | 0.751 | 0.705 | 0.442 | 0.543
10 | HCC-15 | 0.22 | 0.193 | 0.233 | 0.193 | 0.154 | 0.785 | 0.718 | 0.563 | 0.291 | 0.144 | 0.731 | 0.725 | 0.627 | 0.326 | 0.242 | 0.183 | 0.231 | 0.203 | 0.164 | 0.144
11 | LCLC-97TM1 | 0.169 | 0.165 | 0.189 | 0.141 | 0.0948 | 0.532 | 0.517 | 0.403 | 0.423 | 0.116 | 0.18 | 0.219 | 0.14 | 0.109 | 0.0966 | 0.519 | 0.635 | 0.51 | 0.269 | 0.187
12 | SK-LU-1 | 0.934 | 1.04 | 0.965 | 0.473 | 0.465 | 0.358 | 0.373 | 0.251 | 0.174 | 0.172 | 0.816 | 1.11 | 0.797 | 0.446 | 0.428 | 0.197 | 0.202 | 0.272 | 0.216 | 0.191
13 | NCI-H1651 | 0.629 | 0.501 | 0.433 | 0.366 | 0.285 | 0.591 | 0.641 | 0.438 | 0.44 | 0.155 | 0.787 | 0.772 | 0.754 | 0.448 | 0.358 | 0.538 | 0.574 | 0.402 | 0.257 | 0.205
14 | NCI-H2170 | 0.255 | 0.263 | 0.244 | 0.235 | 0.234 | 0.697 | 0.76 | 0.44 | 0.736 | 0.536 | 0.996 | 1.19 | 1.12 | 0.662 | 0.624 | 0.604 | 0.494 | 0.593 | 0.355 | 0.515

Source: the supplement of paper PMC10307832
